Reference: US20220160712A1, “METHODS OF TREATING RHEUMATOID ARTHRITIS AND FOR PREDICTING THE RESPONSE TO METHOTREXATE” (CHAN ZUCKERBERG BIOHUB, INC., priority 2020, published 2022)

System: gut microbiome
Experiment: RA patients on oral MTX: 16S-seq and metagenomic sequencing of stool at baseline and 1 month; clinical response
Assay type: in vivo, human
Conditions: for number of gene families differentially abundant over time: metagenomic sequencing n=17
Protocol: Consecutive patients from the New York University Langone Medical Center's rheumatology clinics and offices were screened for the presence of RA based on ACR criteria (Aletaha et al., 2010). After informed consent was signed, each patient's medical history (according to chart review and interview/questionnaire), diet, and medications were determined. A screening musculoskeletal examination and laboratory assessments were also performed or reviewed. All RA patients who met the study criteria were offered enrollment. The criteria for inclusion in the study required that patients meet the American College of Rheumatology/European League Against Rheumatism 2010 classification criteria for RA (Aletaha et al., 2010), including seropositivity for rheumatoid factor and/or anti-citrullinated protein antibodies, and that all subjects be age 18 years or older. New-onset RA was defined as disease duration of a minimum of 6 weeks and up to 6 months since diagnosis, and absence of any treatment with disease-modifying anti-rheumatic drugs, biologic therapy or steroids (ever). The exclusion criteria applied to all groups were as follows: recent (<3 months prior) use of any antibiotic therapy, current extreme diet (e.g., parenteral nutrition or macrobiotic diet), known inflammatory bowel disease, known history of malignancy, current consumption of probiotics, any gastrointestinal tract surgery leaving permanent residua (e.g., gastrectomy, bariatric surgery, colectomy), or significant liver, renal, or peptic ulcer disease. This study was approved by the Institutional Review Board of New York University School of Medicine protocols #09-0658 and as previously published (Scher et al., 2013). All new onset rheumatoid arthritis (NORA) patients were recruited using established protocols from a previously described study (Scher et al., 2013). Patients received oral MTX at standard of care doses as prescribed by their treating rheumatologists. Stool samples were collected at baseline and 1 month after MTX initiation and metadata were obtained at baseline and 4 months after therapy initiation. Clinical and demographic data was de-identified and recorded in RedCap by the designated study personnel. Clinical responder status (MTX-R) was defined a priori as any NORA patient whose DAS28 score was greater than 2 at baseline and improved by at least 1.8 by month 4 post-treatment. DNA was extracted from human fecal samples (n=23 patients, 46 stool samples) as previously described (Scher et al., 2013), using the MoBio Powersoil DNA extraction kit, based on cell membrane disruption by high-speed shaking in the presence of beads. The V4 hypervariable region of bacterial 16S ribosomal RNA (rRNA) was performed using a MiSeq […] platform (150-bp read length, paired-end protocol) at the New York University Genome Technology Center as previously described (Manasson et al., 2018). For each sample, fastq files are available in NCBI's Sequence Read Archive (SRA), accession number PRJNA656577.
Stool samples from 17 RA patients underwent DNA extraction using ZymoBIOMICS 96 MagBead DNA Kit (Cat #D4302) as per the manufacturer's protocol. Sequencing libraries were generated using the Nextera DNA Flex Library Kit (Illumina, #20018705) and Nextera Compatible Unique Dual Indices—Set A primers (Illumina, #20027213). Library concentrations were normalized using PicoGreen (Quant-It dsDNA; Life Technologies) and pooled for sequencing on the NovaSeq using S1 or S2 platform at the Chan Zuckerberg Biohub.
Reads that were not already demultiplexed were demultiplexed using QIIME (Caporaso et al., 2010) v1.9.1 (split_libraries_fastq.py). For all reads except NYU RA patient samples, QIIME2 (Bolyen et al., 2019)(v 2020.2) was used to trim reads, denoise the data, and create a feature table using the following commands: qiime cutadapt trim-paired, qiime dada2 denoise-paired, qiime feature-table filter-samples. […]

SMILES: CN(Cc1cnc2nc(N)nc(N)c2n1)c1ccc(C(=O)N[C@@H](CCC(=O)O)C(=O)O)cc1 [MTX, methotrexate]
- number of MTX responders (MTX-R) (23 RA patients, decrease in DAS28 of ≥1.8 and continued oral MTX without added DMARDs or biologics): 8
- number of MTX non-responders (MTX-NR) (23 RA patients, same response definition): 15
- number of KOs with significant differences in abundance (MTX-NR, q<0.25, MaAsLin2): 5
- number of gene families with significant differences in abundance (MTX-NR, q<0.25, MaAsLin2): 508
- number of gene families with significant shift (MTX-R, q<0.25, MaAsLin2): 2
- change in Bacteroidetes over time in MTX-R relative to MTX-NR (baseline vs 1 month, Wilcoxon rank-sum): significant decrease
- richness, community structure, abundance of bacterial phyla, genera, or ASVs, pre- vs. post MTX (entire cohort n=23, baseline vs 1 month, oral MTX standard of care): no significant differences
- number of gene families differentially abundant over time (MaAsLin2 q-value<0.25): 96
- number of gene families differentially abundant over time (nominal p-value<0.05): 6,409
- number of KEGG orthologs (KOs) differentially abundant (nominal p<0.05): 334
- number of KEGG orthologs (KOs) differentially abundant (q<0.25): 5
